Assay results published in ChEMBL document CHEMBL1955797, “Discovery of vinylcycloalkyl-substituted benzimidazole TRPM8 antagonists effective in the treatment of cold allodynia” (Bioorg Med Chem Lett, 2012).
One block for each molecule: values may come before it. Active and inactive are the calls of the source. The rule behind the calls is not given here.

Legend:
[1] = Metabolic stability in human liver microsomes assessed as compound remaining after 10 mins; type: ADME, Microsome; conditions: read-out: Stability
[2] = biological target: Transient receptor potential M8 protein (Canis lupus familiaris, UniProt Q1A7N1); experiment: Antagonist activity at dog TRPM8 expressed in HEK293 cells assessed as inhibition of icilin-induced calcium flux by FLIPR assay; type: functional, cell-based
[3] = Metabolic stability in dog liver microsomes assessed as compound remaining after 10 mins; type: ADME, Canis lupus familiaris, Microsome; conditions: read-out: Stability
[4] = Metabolic stability in rat liver microsomes assessed as compound remaining after 10 mins; type: ADME, Microsome; conditions: read-out: Stability
[5] = biological target: Transient receptor potential M8 protein (Canis lupus familiaris) (UniProt Q1A7N1); experiment: Antagonist activity at dog TRPM8 expressed in human HEK293 cells assessed as inhibition of icilin-induced calcium flux at 0.2 uM by FLIPR assay; type: functional, cell-based
[6] = Volume of distribution at steady state in rat at 10 mg/kg; type: ADME, organism-based; set-up: dose 10 mg/kg; conditions: in vivo, read-out: Vdss
Cytochrome P450 3A4 [7] = biological target: T1, Cytochrome P450 3A4 (Homo sapiens, UniProt P08684); experiment: Inhibition of CYP3A4 in human liver microsomes; type: ADME, Microsome
[8] = Oral bioavailability in rat at 10 mg/kg; type: ADME, organism-based; conditions: in vivo
Cytochrome P450 1A2 = biological target: T2, Cytochrome P450 1A2 (Homo sapiens, UniProt P05177); experiment: Inhibition of recombinant CYP1A2; type: ADME
T2 sequence (P05177 whole entry): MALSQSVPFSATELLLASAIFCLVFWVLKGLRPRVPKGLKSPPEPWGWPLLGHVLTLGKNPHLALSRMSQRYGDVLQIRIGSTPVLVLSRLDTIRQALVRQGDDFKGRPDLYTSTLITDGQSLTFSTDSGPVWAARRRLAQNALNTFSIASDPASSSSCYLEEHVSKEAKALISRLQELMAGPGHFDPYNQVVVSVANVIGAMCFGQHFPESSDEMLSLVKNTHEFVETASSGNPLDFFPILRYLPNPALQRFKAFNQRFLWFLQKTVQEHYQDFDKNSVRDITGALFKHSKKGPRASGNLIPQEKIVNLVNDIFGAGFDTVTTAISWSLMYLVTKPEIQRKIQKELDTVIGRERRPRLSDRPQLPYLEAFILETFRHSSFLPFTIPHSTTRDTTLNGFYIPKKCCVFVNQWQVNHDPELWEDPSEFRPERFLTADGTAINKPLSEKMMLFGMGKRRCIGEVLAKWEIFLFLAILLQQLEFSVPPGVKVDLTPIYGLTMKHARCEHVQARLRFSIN

Cytochrome P450 2C19 [9] = biological target: T3, Cytochrome P450 2C19 (Homo sapiens, UniProt P33261); experiment: Inhibition of recombinant CYP2C19; type: ADME
Rattus norvegicus [10] = experiment: Antiallodynic activity against chronic constriction injury cold allodynia in rat assessed as inhibition of cold hypersensitivity at 30 mg/kg, po measured after 2 to 3 hrs post dosing; type: functional
[11] = Half life in rat at 10 mg/kg; type: ADME, organism-based; set-up: dose 10 mg/kg; conditions: in vivo
Rattus norvegicus [12] = experiment: Inhibition of icilin-induced wet dog shakes behavior in po dosed rat administered 60 mins prior to icilin challenge; type: functional
[13] = Tmax in rat at 10 mg/kg; type: ADME, organism-based; set-up: dose 10 mg/kg; conditions: in vivo
Cytochrome P450 2C9 = Cytochrome P450 2C9 (Homo sapiens, UniProt P11712); experiment: Inhibition of recombinant CYP2C9; type: ADME
Liver microsomes = experiment: Metabolic stability in human liver microsomes assessed as CYP3A4-mediated glutathione adduct formation by glutathione conjugation assay; type: ADME, Microsome
[14] = Clearance in rat at 10 mg/kg; type: ADME, organism-based; set-up: dose 10 mg/kg; conditions: in vivo
CYP2C9 = CYP2C9 (Homo sapiens, UniProt P11712); experiment: Inhibition of CYP2C9 in human liver microsomes at 3.3 uM; type: ADME, Microsome
Rattus norvegicus [15] = experiment: Antiallodynic activity against chronic constriction injury cold allodynia in rat assessed as inhibition of cold hypersensitivity at 10 mg/kg, po measured after 2 hrs post dosing; type: functional, organism-based; set-up: dose 10 mg/kg
[16] = biological target: Transient receptor potential cation channel subfamily M member 8 (Homo sapiens, UniProt Q7Z2W7); experiment: Antagonist activity at human TRPM8 by calcium flux assay; type: functional
Cytochrome P450 2D6 = Cytochrome P450 2D6 (Homo sapiens, UniProt P10635); experiment: Inhibition of recombinant CYP2D6; type: ADME
Cytochrome P450 3A4 [17] = biological target: T1, Cytochrome P450 3A4; experiment: Inhibition of recombinant CYP3A4; type: ADME
[18] = Cmax in rat at 10 mg/kg; type: ADME, organism-based; set-up: dose 10 mg/kg; conditions: in vivo
Rattus norvegicus [19] = experiment: Antiallodynic activity against chronic constriction injury cold allodynia in rat assessed as inhibition of cold hypersensitivity at 10 mg/kg, po measured after 4 hrs post dosing; type: functional, organism-based; set-up: dose 10 mg/kg
[20] = biological target: Transient receptor potential cation channel subfamily M member 8 (Rattus norvegicus, UniProt Q8R455); experiment: Antagonist activity at rat TRPM8 by calcium flux assay; type: functional
Rattus norvegicus [21] = experiment: Antiallodynic activity against chronic constriction injury cold allodynia in rat assessed as inhibition of cold hypersensitivity at 10 mg/kg, po measured after 2 to 3 hrs post dosing; type: functional
Cytochrome P450 2C19 [22] = biological target: T3, Cytochrome P450 2C19; experiment: Inhibition of CYP2C19 in human liver microsomes; type: ADME, Microsome

Transient receptor potential M8 protein (Canis lupus familiaris), sequence (Q1A7N1 1-1104): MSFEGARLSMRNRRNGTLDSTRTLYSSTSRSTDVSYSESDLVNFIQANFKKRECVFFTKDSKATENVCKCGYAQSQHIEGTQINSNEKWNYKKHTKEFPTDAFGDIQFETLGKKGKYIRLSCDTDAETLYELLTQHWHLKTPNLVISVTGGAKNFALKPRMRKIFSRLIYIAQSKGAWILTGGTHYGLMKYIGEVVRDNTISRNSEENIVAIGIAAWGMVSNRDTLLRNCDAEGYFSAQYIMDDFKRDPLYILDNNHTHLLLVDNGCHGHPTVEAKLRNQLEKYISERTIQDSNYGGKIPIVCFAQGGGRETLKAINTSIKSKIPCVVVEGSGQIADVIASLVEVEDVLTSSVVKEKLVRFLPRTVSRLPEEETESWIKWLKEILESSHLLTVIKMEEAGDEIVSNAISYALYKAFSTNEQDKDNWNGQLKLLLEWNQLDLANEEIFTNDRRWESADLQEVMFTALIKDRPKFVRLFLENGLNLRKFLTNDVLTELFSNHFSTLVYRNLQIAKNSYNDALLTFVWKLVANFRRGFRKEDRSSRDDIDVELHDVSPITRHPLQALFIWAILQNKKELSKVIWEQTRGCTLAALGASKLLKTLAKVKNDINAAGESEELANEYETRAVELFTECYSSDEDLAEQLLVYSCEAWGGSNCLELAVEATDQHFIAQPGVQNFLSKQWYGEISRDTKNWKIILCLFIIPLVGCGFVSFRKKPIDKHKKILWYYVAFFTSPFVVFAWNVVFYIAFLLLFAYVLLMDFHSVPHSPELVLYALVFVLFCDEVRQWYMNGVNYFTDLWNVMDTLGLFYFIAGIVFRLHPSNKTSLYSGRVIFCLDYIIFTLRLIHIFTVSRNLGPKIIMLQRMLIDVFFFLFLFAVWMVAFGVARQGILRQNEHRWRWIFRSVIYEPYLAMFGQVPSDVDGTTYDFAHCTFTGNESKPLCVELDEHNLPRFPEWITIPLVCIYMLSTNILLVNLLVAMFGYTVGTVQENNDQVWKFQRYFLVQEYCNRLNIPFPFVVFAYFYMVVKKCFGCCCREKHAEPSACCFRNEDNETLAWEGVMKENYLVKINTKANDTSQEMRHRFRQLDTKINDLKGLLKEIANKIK
Transient receptor potential M8 protein, sequence (Q1A7N1 whole entry): as the sequence (Q1A7N1 1-1104) above
T3 sequence (P33261 whole entry): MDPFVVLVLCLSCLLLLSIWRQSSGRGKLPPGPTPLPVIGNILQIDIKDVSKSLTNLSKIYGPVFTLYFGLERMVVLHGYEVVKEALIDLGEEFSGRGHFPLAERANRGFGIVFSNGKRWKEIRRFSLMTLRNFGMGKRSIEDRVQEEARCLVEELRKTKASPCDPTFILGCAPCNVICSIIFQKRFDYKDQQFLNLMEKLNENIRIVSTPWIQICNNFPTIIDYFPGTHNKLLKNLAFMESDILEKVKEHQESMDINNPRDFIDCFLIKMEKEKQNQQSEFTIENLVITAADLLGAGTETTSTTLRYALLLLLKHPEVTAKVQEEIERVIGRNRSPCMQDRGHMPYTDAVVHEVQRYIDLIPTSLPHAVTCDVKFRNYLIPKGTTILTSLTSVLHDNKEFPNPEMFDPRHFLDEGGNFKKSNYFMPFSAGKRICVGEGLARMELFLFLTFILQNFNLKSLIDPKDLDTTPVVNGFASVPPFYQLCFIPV
T1 sequence (P08684 whole entry): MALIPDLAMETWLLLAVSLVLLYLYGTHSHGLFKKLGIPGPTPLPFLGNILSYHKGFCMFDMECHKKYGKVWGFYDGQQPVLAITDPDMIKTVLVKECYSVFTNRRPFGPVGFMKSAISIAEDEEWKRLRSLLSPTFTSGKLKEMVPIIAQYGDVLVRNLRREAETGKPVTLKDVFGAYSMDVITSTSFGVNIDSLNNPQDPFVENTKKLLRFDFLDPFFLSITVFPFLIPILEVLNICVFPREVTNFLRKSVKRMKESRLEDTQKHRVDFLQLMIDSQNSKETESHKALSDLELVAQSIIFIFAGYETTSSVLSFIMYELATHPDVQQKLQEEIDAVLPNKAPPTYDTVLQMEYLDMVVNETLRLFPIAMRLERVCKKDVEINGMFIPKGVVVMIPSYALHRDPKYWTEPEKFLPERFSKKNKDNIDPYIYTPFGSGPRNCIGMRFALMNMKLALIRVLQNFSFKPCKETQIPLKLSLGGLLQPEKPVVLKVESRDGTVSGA
Transient receptor potential cation channel subfamily M member 8 (Homo sapiens, UniProt Q7Z2W7), sequence (Q7Z2W7 whole entry): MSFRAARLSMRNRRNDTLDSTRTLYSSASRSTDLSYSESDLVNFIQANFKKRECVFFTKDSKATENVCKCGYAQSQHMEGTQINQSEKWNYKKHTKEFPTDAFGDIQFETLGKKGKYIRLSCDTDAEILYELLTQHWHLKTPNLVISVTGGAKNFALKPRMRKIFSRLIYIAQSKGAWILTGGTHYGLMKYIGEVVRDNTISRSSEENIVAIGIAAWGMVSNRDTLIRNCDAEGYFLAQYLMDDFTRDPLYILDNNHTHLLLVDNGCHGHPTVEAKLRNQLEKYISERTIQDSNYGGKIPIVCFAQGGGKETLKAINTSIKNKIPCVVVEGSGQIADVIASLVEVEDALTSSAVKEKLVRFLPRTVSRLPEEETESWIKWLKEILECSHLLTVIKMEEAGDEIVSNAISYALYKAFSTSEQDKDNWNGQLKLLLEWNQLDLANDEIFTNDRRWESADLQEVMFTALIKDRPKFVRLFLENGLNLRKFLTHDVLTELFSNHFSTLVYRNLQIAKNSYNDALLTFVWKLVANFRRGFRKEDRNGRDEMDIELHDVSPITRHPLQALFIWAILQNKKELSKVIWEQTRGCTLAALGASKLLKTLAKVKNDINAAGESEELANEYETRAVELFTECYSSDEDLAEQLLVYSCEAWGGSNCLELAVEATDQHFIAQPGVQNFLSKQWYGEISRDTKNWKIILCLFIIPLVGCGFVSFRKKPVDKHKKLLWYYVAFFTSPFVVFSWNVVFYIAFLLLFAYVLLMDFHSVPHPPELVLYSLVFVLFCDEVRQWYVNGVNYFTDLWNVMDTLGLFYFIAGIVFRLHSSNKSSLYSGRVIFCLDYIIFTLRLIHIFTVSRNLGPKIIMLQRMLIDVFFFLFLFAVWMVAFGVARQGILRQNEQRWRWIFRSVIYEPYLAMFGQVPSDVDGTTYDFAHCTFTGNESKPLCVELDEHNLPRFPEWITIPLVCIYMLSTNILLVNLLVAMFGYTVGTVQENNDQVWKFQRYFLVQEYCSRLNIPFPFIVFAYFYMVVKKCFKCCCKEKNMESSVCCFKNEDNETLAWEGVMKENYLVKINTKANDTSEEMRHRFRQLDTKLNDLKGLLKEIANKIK
Cytochrome P450 2D6, sequence (P10635 whole entry): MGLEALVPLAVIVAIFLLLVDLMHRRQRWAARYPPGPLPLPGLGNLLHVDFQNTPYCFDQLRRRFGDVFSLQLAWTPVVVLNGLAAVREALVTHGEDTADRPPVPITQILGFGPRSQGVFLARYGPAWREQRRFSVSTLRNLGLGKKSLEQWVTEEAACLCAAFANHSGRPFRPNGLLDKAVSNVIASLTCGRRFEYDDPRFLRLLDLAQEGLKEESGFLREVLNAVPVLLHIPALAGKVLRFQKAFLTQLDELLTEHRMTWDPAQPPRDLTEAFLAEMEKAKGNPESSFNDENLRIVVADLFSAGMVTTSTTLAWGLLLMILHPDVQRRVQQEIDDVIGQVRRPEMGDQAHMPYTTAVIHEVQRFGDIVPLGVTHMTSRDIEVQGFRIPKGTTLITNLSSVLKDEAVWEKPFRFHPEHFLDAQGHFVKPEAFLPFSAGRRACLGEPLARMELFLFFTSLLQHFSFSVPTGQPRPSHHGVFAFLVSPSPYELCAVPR
Transient receptor potential cation channel subfamily M member 8 (Rattus norvegicus, UniProt Q8R455), sequence (Q8R455 whole entry): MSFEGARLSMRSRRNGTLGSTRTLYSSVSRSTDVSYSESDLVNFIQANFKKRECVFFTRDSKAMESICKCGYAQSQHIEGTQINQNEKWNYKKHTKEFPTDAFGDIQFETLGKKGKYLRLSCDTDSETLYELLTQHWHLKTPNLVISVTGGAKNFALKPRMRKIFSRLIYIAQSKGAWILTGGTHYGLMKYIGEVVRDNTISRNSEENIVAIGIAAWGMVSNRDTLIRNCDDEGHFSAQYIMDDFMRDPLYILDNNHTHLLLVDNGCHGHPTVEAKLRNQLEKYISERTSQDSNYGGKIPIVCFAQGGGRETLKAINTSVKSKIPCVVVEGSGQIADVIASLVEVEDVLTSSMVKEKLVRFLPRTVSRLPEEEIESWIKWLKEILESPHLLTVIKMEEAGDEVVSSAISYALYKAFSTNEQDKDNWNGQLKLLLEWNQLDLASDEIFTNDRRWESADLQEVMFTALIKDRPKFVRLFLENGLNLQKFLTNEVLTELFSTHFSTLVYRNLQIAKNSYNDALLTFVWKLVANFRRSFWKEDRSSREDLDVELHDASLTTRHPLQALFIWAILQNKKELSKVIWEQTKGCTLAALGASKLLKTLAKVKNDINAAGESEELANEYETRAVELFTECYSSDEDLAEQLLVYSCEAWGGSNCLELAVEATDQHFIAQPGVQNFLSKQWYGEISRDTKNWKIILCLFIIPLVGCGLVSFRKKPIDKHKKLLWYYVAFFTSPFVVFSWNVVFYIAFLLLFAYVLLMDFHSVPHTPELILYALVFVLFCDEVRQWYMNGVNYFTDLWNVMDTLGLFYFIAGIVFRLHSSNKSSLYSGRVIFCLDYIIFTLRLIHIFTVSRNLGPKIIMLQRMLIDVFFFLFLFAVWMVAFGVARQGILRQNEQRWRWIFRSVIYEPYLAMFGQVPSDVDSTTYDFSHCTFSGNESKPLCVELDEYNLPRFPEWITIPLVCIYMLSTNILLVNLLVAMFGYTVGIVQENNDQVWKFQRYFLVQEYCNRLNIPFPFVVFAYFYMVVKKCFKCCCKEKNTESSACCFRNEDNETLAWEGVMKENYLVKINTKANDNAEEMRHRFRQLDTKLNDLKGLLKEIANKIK

- remaining at 10 min [1]: 93%
- IC50 [2]: 7.1 nM
- remaining at 10 min [3]: 51%
- remaining at 10 min [4]: 79%
Structure (SMILES): FC(F)(F)c1ccccc1-c1ccc2[nH]c(/C=C/C3CCOCC3)nc2c1

- remaining at 10 min [1]: 84%
- IC50 [2]: 110 nM
- remaining at 10 min [4]: 71%
Structure (SMILES): FC(F)(F)Oc1ccccc1-c1ccc2[nH]c(/C=C/C3CCCC3)nc2c1

- remaining at 10 min [1]: 91%
- inhibition [5]: 63%
- remaining at 10 min [3]: 60%
- remaining at 10 min [4]: 74%
Structure (SMILES): O=S1(=O)CCC(/C=C/c2nc3cc(-c4ccccc4C(F)(F)F)ccc3[nH]2)CC1

- IC50 [2]: 110 nM
Structure (SMILES): C(=C\C1CCCCC1)/c1nc2cc(-c3ccccc3)ccc2[nH]1

- remaining at 10 min [1]: 90%
- IC50 [2]: 38 nM
- remaining at 10 min [3]: 42%
- remaining at 10 min [4]: 72%
Structure (SMILES): FC(F)(F)c1cccnc1-c1ccc2[nH]c(/C=C/C3CCCCC3)nc2c1

- remaining at 10 min [1]: 77%
- IC50 [2]: 7.1 nM
- remaining at 10 min [3]: 13%
- remaining at 10 min [4]: 15%
Structure (SMILES): Cc1ccccc1-c1ccc2[nH]c(/C=C/C3CCCCC3)nc2c1

- remaining at 10 min [1]: 47%
- IC50 [2]: 21 nM
- remaining at 10 min [3]: 39%
- remaining at 10 min [4]: 100%
Structure (SMILES): FC1(F)CCC(/C=C/c2nc3cc(-c4ccccc4C(F)(F)F)ccc3[nH]2)CC1

- remaining at 10 min [1]: 62%
- IC50 [2]: 8.9 nM
- remaining at 10 min [3]: 35%
- remaining at 10 min [4]: 20%
Structure (SMILES): CC1(/C=C/c2nc3cc(-c4ccccc4C(F)(F)F)ccc3[nH]2)CCOCC1

- remaining at 10 min [1]: 71%
- remaining at 10 min [4]: 91%
Structure (SMILES): FC(F)(F)Oc1ccccc1-c1ccc2[nH]c(/C=C/C3CCCCC3)nc2c1

- remaining at 10 min [1]: 97%
- IC50 [2]: 8.9 nM
- remaining at 10 min [3]: 28%
- remaining at 10 min [4]: 84%
Structure (SMILES): CC1(/C=C/c2nc3cc(-c4ccccc4C(F)(F)F)ccc3[nH]2)CCC(F)(F)CC1

- remaining at 10 min [1]: 98%
- IC50 [2]: 21 nM
- remaining at 10 min [3]: 75%
- remaining at 10 min [4]: 34%
Structure (SMILES): Fc1ccccc1-c1ccc2[nH]c(/C=C/C3CCCCC3)nc2c1

- remaining at 10 min [1]: 100%
- inhibition [5]: 1%
- remaining at 10 min [3]: 100%
- remaining at 10 min [4]: 85%
Structure (SMILES): CC(=O)N1CCC(/C=C/c2nc3cc(-c4ccccc4C(F)(F)F)ccc3[nH]2)CC1

- inhibition [5]: 1%
Structure (SMILES): CN1CCC(/C=C/c2nc3cc(-c4ccccc4C(F)(F)F)ccc3[nH]2)CC1

- remaining at 10 min [1]: 62%
- IC50 [2]: 8.9 nM
- remaining at 10 min [4]: 10%
Structure (SMILES): COc1ccccc1-c1ccc2[nH]c(/C=C/C3CCCCC3)nc2c1

- remaining at 10 min [1]: 67%
- remaining at 10 min [3]: 8%
- remaining at 10 min [4]: 6%
Structure (SMILES): FC(F)(F)c1ccccc1-c1ccc2[nH]c(/C=C/C3CCSCC3)nc2c1

- remaining at 10 min [1]: 56%
- IC50 [2]: 12.3 nM
- remaining at 10 min [3]: 61%
- remaining at 10 min [4]: 44%
Structure (SMILES): FC(F)(F)c1cccc(C(F)(F)F)c1-c1ccc2[nH]c(/C=C/C3CCCCC3)nc2c1

- remaining at 10 min [1]: 85%
- Vd [6]: 9.5 L/kg
- IC50 (Cytochrome P450 3A4 [7]): > 30000 nM
- bioavailability [8]: 14%
- IC50 (Cytochrome P450 1A2): > 10000 nM
- IC50 (Cytochrome P450 2C19 [9]): > 10000 nM
- half-life [11]: 2.9 h
- IC50 [2]: 11 nM
- Tmax [13]: 1.6 h
- IC50 (Cytochrome P450 2C9): 3500 nM
- remaining at 10 min [3]: 20%
- Stability (Liver microsomes): Stable
- remaining at 10 min [4]: 58%
- clearance [14]: 22 mL/min/kg
- inhibition at 3.3 µM (CYP2C9): 62%
- IC50 [16]: 15 nM
- IC50 (Cytochrome P450 2D6): > 10000 nM
- IC50 (Cytochrome P450 3A4 [17]): 3500 nM
- Cmax [18]: 225 ng/mL
- IC50 [20]: 20 nM
- IC50 (Cytochrome P450 2C19 [22]): > 30000 nM
Structure (SMILES): FC(F)(F)c1ccccc1-c1ccc2[nH]c(/C=C/C3CCCCC3)nc2c1
- inhibition in vivo at 30 mg/kg (Rattus norvegicus [10]): 90%
- ED50 (Rattus norvegicus [12]): 6.4 mg/kg
- inhibition (Rattus norvegicus [12]): Dose-dependent effect
- Activity (Rattus norvegicus [15]): Active
- Activity (Rattus norvegicus [19]): Active
- inhibition in vivo at 10 mg/kg (Rattus norvegicus [21]): 90%

- inhibition [5]: 14%
- remaining at 10 min [3]: 75%
Structure (SMILES): CS(=O)(=O)N1CCC(/C=C/c2nc3cc(-c4ccccc4C(F)(F)F)ccc3[nH]2)CC1

- remaining at 10 min [1]: 67%
- IC50 [2]: 8.6 nM
- remaining at 10 min [3]: 42%
- remaining at 10 min [4]: 66%
Structure (SMILES): Fc1cccc(C(F)(F)F)c1-c1ccc2[nH]c(/C=C/C3CCCCC3)nc2c1

- remaining at 10 min [1]: 71%
- IC50 [2]: 8.9 nM
- remaining at 10 min [4]: 39%
Structure (SMILES): Clc1ccccc1-c1ccc2[nH]c(/C=C/C3CCCCC3)nc2c1

- remaining at 10 min [1]: 99%
- inhibition [5]: 16%
- remaining at 10 min [3]: 98%
- remaining at 10 min [4]: 86%
Structure (SMILES): FC(F)(F)c1ccccc1-c1ccc2[nH]c(/C=C/C3CCNCC3)nc2c1
